Test results taken from PubChem BioAssay (NCI).
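Growth conditions: 96-well plates. Treatment: test compound, 48 hours, 5 concentrations. Analysis: linear interpolation between bracketing concentrations; unreached endpoints set to highest concentration. At the GI50, growth is halved. TGI is the concentration that stops growth completely.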

Legend:
Experiment in all cases: NCI-60 cell line screen, 48 h
NCI-H23 lung = system: NCI-H23 lung
EKVX NSCLC = system: EKVX NSCLC
HCT-116 colon = system: HCT-116 colon
SNB-19 CNS = system: SNB-19 CNS
IGROV1 ovarian = system: IGROV1 ovarian
SF-268 CNS = system: SF-268 CNS
A498 renal = system: A498 renal
NCI/ADR-RES ovarian = system: NCI/ADR-RES ovarian

Structure (SMILES)	GI50 (NCI-H23 lung) [µM]	TGI (NCI-H23 lung) [µM]	GI50 (EKVX NSCLC) [µM]	TGI (EKVX NSCLC) [µM]	GI50 (HCT-116 colon) [µM]	TGI (HCT-116 colon) [µM]	GI50 (SNB-19 CNS) [µM]	TGI (SNB-19 CNS) [µM]	GI50 (IGROV1 ovarian) [µM]	TGI (IGROV1 ovarian) [µM]	GI50 (SF-268 CNS) [µM]	TGI (SF-268 CNS) [µM]	GI50 (A498 renal) [µM]	TGI (A498 renal) [µM]	GI50 (NCI/ADR-RES ovarian) [µM]	TGI (NCI/ADR-RES ovarian) [µM]
C[C@@]1(F)[C@H](O)[C@@H](CO)O[C@H]1n1ccc(=O)[nH]c1=O	> 100	> 100	> 100	> 100	> 100	> 100	> 100	> 100	> 100	> 100	> 100	> 100	> 100	> 100	> 100	> 100
CCCCNC(c1ccc(Cl)cc1)C(O)c1ccc(Cl)cc1 (configuration not stated)	2.25	7.59	2.76	14.7	0.938	2.27	2.09	5.74	2.41	12.4	3.21	16.3	2.29	5.57	1.81	5.35
COc1ccc2c(c1)C(=O)c1c-2c(OCCCN(C)C)nc2cc(Br)ccc12	11.3	24.6	2.78	13.5	5.16	18.5	3.08	11.8	–	26.9	2.5	10.4	7.31	20.5	2.84	16.5
CCC[CH2][Sn-]([CH2]CCC)([CH2]CCC)[O]C(=O)C(C)C	0.115	0.31	0.154	0.362	0.0553	0.182	0.186	0.351	0.166	0.324	0.144	0.333	0.153	0.286	0.154	0.46
C/C(=N/NC(=S)Nc1ccccc1)c1nc2ccc(Cl)cc2[nH]1	0.406	1.52	0.1	0.959	0.0811	0.771	0.25	1.71	0.14	1.19	0.0747	0.858	0.0806	0.708	–	–
N=C1CCCC1C(=S)SCCC(N)=O (configuration not stated)	–	> 100	–	> 100	–	> 100	–	> 100	–	> 100	–	> 100	–	> 100	–	> 100
COC1=CC(=O)O/C1=C(\OC)C1OC1c1ccccc1 (configuration not stated)	–	> 100	–	> 100	–	> 100	–	> 100	–	> 100	–	> 100	–	> 100	–	> 100
COc1ccc(-c2ccc(C3CC(c4ccccc4)=NN3)o2)c([N+](=O)[O-])c1 (configuration not stated)	39.1	> 100	49.2	> 100	33.5	> 100	86.2	> 100	> 100	> 100	37.8	> 100	68.4	> 100	33.9	> 100
O=c1c(Cc2ccc3c(c2)OCO3)nnc2sc(-c3cc(F)c(Cl)cc3Cl)nn12	82.5	> 100	–	–	23.5	> 100	34.3	> 100	32.3	> 100	41.7	> 100	–	–	63.7	> 100
COc1cc2c(cc1C)NC(=O)/C2=C/c1ccnc2ccccc12	25.5	> 50	25.5	> 50	24.4	> 50	6.88	36.3	12.6	> 50	18	> 50	–	–	15.6	41.2
O=C1c2cccc3cccc(c23)C(=O)N1CCCCCN1CCN(CCN=c2cc3n(-c4ccc(Cl)cc4)c4ccccc4nc-3cc2Nc2ccc(Cl)cc2)CC1	8.52	22.3	14.5	> 50	7.79	17.5	23	> 50	–	–	23.1	> 50	> 50	> 50	6.95	19.4
COc1ccc(-c2nc3ccccc3s2)cc1OC	–	> 100	–	–	–	> 100	–	28.3	–	–	–	–	–	–	–	> 100
CSc1nc(Nc2cccc(NC(=O)CCl)c2)c(C#N)c(-c2cccc([N+](=O)[O-])c2)n1	1.7	4.35	3.36	13.2	–	–	2.06	4.78	0.214	0.685	2.24	5.72	12.4	37.6	2.38	7.64
O=C(Nc1ccc(Cl)cc1C(F)(F)F)C(=O)Nn1c(=S)[nH]c2ccccc2c1=O	–	> 100	–	–	–	> 100	–	–	–	–	–	> 100	–	> 100	–	> 100
CCN(CC)C(=S)SSC(C)C	16.4	36	27.4	70.4	–	–	31.8	> 100	–	–	16.2	37	–	–	16	35.7
COc1cc2c(cc1OCCNC(=O)/C=C1\C[C@H]3C=Nc4cc(OCc5ccccc5)c(OC)cc4C(=O)N3C1)N=C[C@@H]1CCCN1C2=O	9.26	27	36.8	81.6	2.93	11.9	8.62	> 100	1.42	5.64	2.18	7.03	–	–	> 100	> 100
COc1cc(O)ccc1C(=S)SC	–	> 100	–	46.3	–	> 100	–	> 100	–	> 100	–	> 100	–	–	–	> 100
O=c1c(-c2ccc3c(c2)OCO3)coc2c3c(ccc12)OCO3	–	40	–	> 100	–	> 100	–	44.9	–	59.7	–	43.3	–	83.1	–	–
O=C(Nc1sc2c(c1C(=O)O)CCCC2)c1ccco1	–	–	36.3	> 50	31	> 50	29.5	> 50	> 50	> 50	25.7	> 50	> 50	> 50	–	–
